The results in this text go back to patent US8486931B2, “Substituted oxindole compounds” (Abbott GmbH & Co. KG, priority 2007, dated 2013).

The target in the experiment is T1, human vasopressin V1b receptor (Homo sapiens, UniProt P47901).
T1 construct: expressed in transfected cells; host or cells: CHO-K1 (cell line hV1b-3H2_CHO), membrane preparation
T1 sequence (P47901 1-424): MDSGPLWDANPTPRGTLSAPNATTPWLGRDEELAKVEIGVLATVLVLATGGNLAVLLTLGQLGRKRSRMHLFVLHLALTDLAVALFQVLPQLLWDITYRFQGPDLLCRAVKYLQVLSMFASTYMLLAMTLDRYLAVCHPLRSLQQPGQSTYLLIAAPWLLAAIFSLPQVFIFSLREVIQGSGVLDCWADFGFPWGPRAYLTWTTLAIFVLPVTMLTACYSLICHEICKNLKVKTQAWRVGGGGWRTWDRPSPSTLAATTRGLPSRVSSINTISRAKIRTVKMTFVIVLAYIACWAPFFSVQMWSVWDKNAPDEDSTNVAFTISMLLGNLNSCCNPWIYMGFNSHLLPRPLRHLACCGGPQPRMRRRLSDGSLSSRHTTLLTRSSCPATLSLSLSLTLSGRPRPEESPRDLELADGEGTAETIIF
Description: Vasopressin V1b receptor binding assay. Particulars: membranes from CHO-K1 cells with stably expressed human V1b receptors, 1.5 nM 3H-AVP displacement; with more than one stereogenic center: the diastereomer with stronger affinity. As for the experimental part: Such compounds can be investigated in suitable assays which establish the affinity to a receptor, with the affinity constant Ki represening a measure of the potency of the compounds and a smaller value representing a larger potency. The compounds of the invention were tested in the following receptor binding assay for their affinity for the V1 b receptor.
Vasopressin V1 b Receptor Binding Assay:
The test substances were dissolved in a concentration of 10^−2 M in DMSO (dimethyl sulfoxide) and further diluted to 5×10^−4 M to 5×10^−9 M in DMSO. This series of DMSO predilutions was diluted 1:10 with assay buffer. The substance concentration was again diluted 1:5 in the assay mixture (2% DMSO in the mixture).
The membrane pellet was again homogenized and centrifuged as described and then taken up in 50 mM Tris-HCl, pH 7.4, homogenized and stored in aliquots frozen in liquid nitrogen at −190° C.
The incubation buffer was: 50 mM Tris, 10 mM MgCl2, 0.1% BSA, pH 7.4.
The nonspecific binding was determined with 1 μM AVP (Bachem #H1780). All determinations were carried out as triplicate determinations. After incubation (60 minutes at room temperature), the free radioligand was removed by vacuum filtration (Skatron cell harvester 7000) through Whatman GF/B glass fiber filter mats, and the filters were transferred into scintillation vials. The liquid scintillation measurement took place in a Tricarb model 2000 or 2200CA instrument (Packard). Conversion of the measured cpm into dpm was carried out with the aid of a standard quench series.
The binding parameters were calculated by nonlinear regression in SAS.
The above assay was used to measure the affinities of the compounds of the invention for the human vasopressin V1 b receptor and to determine with affinity constants (Ki).
For `CCOc1nc(Cl)ccc1C1(N2CCN(c3ccnc(C)c3)CC2)C(=O)N(S(=O)(=O)c2ccc(OC)cn2)c2ccc(C#N)cc21` (racemic) [Example 34, (±)-5-Cyano-3-(6-chloro-2-ethoxypyridin-3-yl)-1-(5-methoxypyridine-2-sulfonyl)-3-[4-(2-methylpyridin-4-yl)piperazin-1-yl]-2,3-dihydro-1H-indol-2-one], the Ki was less than 10 nM.
The compound `CCOc1ccc(OC)cc1C1(N2CC3CN(c4ccncc4)CC3C2)C(=O)N(S(=O)(=O)c2ccc(OC)cn2)c2ccc(C#N)cc21` (racemic) [Example 68, (±)-5-Cyano-3-(2-ethoxy-5-methoxyphenyl)-1-(5-methoxypyridine-2-sulfonyl)-3-(5-pyridin-4-ylhexahydropyrrolo[3,4-c]pyrrol-2-yl)-2,3-dihydro-1H-indol-2-one] had an inhibition constant Ki of less than 10 nM.
As for `CCOc1ccc(OC)cc1C1(N2CCN(c3ccnc(C(C)C)c3)CC2)C(=O)N(S(=O)(=O)c2cccc3cccnc23)c2ccc(C#N)cc21` (racemic) [Example 57, (±)-5-Cyano-3-(2-ethoxy-5-methoxyphenyl)-3-[4-(2-isopropylpyridin-4-yl)piperazin-1-yl]-1-(quinoline-8-sulfonyl)-2,3-dihydro-1H-indol-2-one], the inhibition constant Ki is less than 10 nM.
For `CCOc1nc(Cl)ccc1C1(N2CCN(c3ccncc3)CC2)C(=O)N(S(=O)(=O)c2cccc3c(C)ccnc23)c2ccc(C#N)cc21` (racemic) [Example 30, (±)-5-Cyano-3-(6-chloro-2-ethoxypyridin-3-yl)-1-(4-methylquinoline-8-sulfonyl)-3-(4-pyridin-4-ylpiperazin-1-yl)-2,3-dihydro-1H-indol-2-one], the Ki was in the range of 10 to 50 nM.
On to `CCOc1ccc(OC)cc1C1(N2CCN(c3ccncc3)CC2)C(=O)N(S(=O)(=O)c2ccc(OC)cn2)c2ccc(C#N)cc21` (single isomer, unassigned; (+)) [Example 163, (+)-5-Cyano-3-(2-ethoxy-5-methoxy-phenyl)-1-(5-methoxy-pyridine-2-sulfonyl)-3-(4-pyridin-4-yl-piperazin-1-yl)-2,3-dihydro-1H-indol-2-one], for which the Ki is less than 10 nM.
The compound `CCOc1ccccc1C1(N2CCN(c3ccncc3)CC2)C(=O)N(S(=O)(=O)c2ccc(OC)cn2)c2ccc(C#N)cc21` (single isomer, unassigned; (+)) [Example 64, (+)-5-Cyano-3-(2-ethoxyphenyl)-1-(5-methoxypyridine-2-sulfonyl)-3-(4-pyridin-4-yl-piperazin-1-yl)-2,3-dihydro-1H-indol-2-one] displayed a Ki of less than 10 nM.
On to `CCOc1ccccc1C1(N2CCN(c3ccncc3)CC2)C(=O)N(S(=O)(=O)c2ccc(OCC)c3cccnc23)c2ccc(C#N)cc21` (single isomer, unassigned; (+)) [Example 67, (+)-5-Cyano-3-(2-ethoxyphenyl)-1-(5-ethoxyquinoline-8-sulfonyl)-3-(4-pyridin-4-yl-piperazin-1-yl)-2,3-dihydro-1H-indol-2-one], for which the inhibitory constant (Ki) was 10 to 50 nM.
As for `COc1ncccc1C1(N2CCN(c3ccncc3)CC2)C(=O)N(S(=O)(=O)c2cccc3cccnc23)c2ccc(Cl)cc21` (racemic) [Example 42, (±)-5-Chloro-3-(2-methoxypyridin-3-yl)-3-(4-pyridin-4-ylpiperazin-1-yl)-1-(quinoline-8-sulfonyl)-1,3-dihydroindol-2-one], the figure is 10 to 50 nM; as for `CCOc1ccccc1C1(N2CCN(c3ccnc(C)c3)CC2)C(=O)N(S(=O)(=O)c2ccc(OC)cn2)c2ccc(C#N)cc21` (racemic) [Example 79, (±)-5-Cyano-3-(2-ethoxyphenyl)-1-(5-methoxypyridine-2-sulfonyl)-3-[4-(2-methyl-pyridin-4-yl)piperazin-1-yl]-2,3-dihydro-1H-indol-2-one], less than 10 nM; as for `CCOc1ccc(OC)cc1C1(N2CCN(c3ccncc3)CC2)C(=O)N(S(=O)(=O)c2ccc(F)c3cccnc23)c2ccc(C#N)cc21` (racemic) [Example 81, (±)-5-Cyano-3-(2-ethoxy-5-methoxyphenyl)-1-(5-fluoroquinoline-8-sulfonyl)-3-(4-pyridin-4-ylpiperazin-1-yl)-2,3-dihydro-1H-indol-2-one], less than 10 nM.
With `CCOc1ccc(OC)cc1C1(N2CCN(c3ccnc(CC)c3)CC2)C(=O)N(S(=O)(=O)c2ccc(OC)c3cccnc23)c2ccc(C#N)cc21` (racemic) [Example 72, (±)-5-Cyano-3-(2-ethoxy-5-methoxyphenyl)-3-[4-(2-ethylpyridin-4-yl)piperazin-1-yl]-1-(5-methoxyquinoline-8-sulfonyl)-2,3-dihydro-1H-indol-2-one] the figure was 10 to 50 nM.
With `CCOc1ccc(OC)cc1C1(N2CCN(c3ccnc(C)c3)CC2)C(=O)N(S(=O)(=O)c2ccc(Cl)c3cccnc23)c2ccc(C#N)cc21` (racemic) [Example 53, (±)-5-Cyano-1-(5-chloroquinoline-8-sulfonyl)-3-(2-ethoxy-5-methoxyphenyl)-3-[4-(2-methylpyridin-4-yl)piperazin-1-yl]-2,3-dihydro-1H-indol-2-one] the figure was 10 to 50 nM; with “(+)-5-Cyano-3-(6-chloro-2-ethoxy-pyridin-3-yl)-1-(5-methoxy-pyridine-2-sulfonyl)-3-[4-(2-methyl-pyridin-4-yl)-piperazin-1-yl]-2,3-dihydro-1H-indol-2-one [Example 152]”, less than 10 nM.
`COc1ncccc1C1(N2CCN(c3ccncc3)CC2)C(=O)N(S(=O)(=O)c2cccc3cccnc23)c2ccc(C#N)cc21` (racemic) [Example 4, (±)-5-Cyano-3-(2-methoxypyridin-3-yl)-3-(4-pyridin-4-ylpiperazin-1-yl)-1-(quinoline-8-sulfonyl)-2,3-dihydro-1H-indol-2-one] came in with a Ki of 10 to 50 nM.
`CCOc1ccc(OC)cc1C1(N2CCC(N3CCN(CC)CC3)CC2)C(=O)N(S(=O)(=O)c2ccc(OC)cn2)c2ccc(C#N)cc21` (racemic) [Example 145, (±)-5-Cyano-3-(2-ethoxy-5-methoxy-phenyl)-3-[4-(4-ethyl-piperazin-1-yl)-piperidin-1-yl]-1-(5-methoxy-pyridine-2-sulfonyl)-2,3-dihydro-1H-indol-2-one] returned a Ki of 10 to 50 nM.
With `CCOc1ccc(C)cc1C1(N2CCN(c3ccncc3)CC2)C(=O)N(S(=O)(=O)c2ccc(OC)c3cccnc23)c2ccc(C#N)cc21` (racemic) [Example 159, (±)-5-Cyano-3-(2-ethoxy-5-methyl-phenyl)-1-(5-methoxy-quinoline-8-sulfonyl)-3-(4-pyridin-4-yl-piperazin-1-yl)-2,3-dihydro-1H-indol-2-one] the figure was less than 10 nM; with `CCOc1nc(Cl)ccc1C1(N2CCN(c3ccncc3)CC2)C(=O)N(S(=O)(=O)c2cccc3cccnc23)c2ccc(C#N)cc21` (racemic) [Example 24, (±)-5-Cyano-3-(6-chloro-2-ethoxypyridin-3-yl)-3-(4-pyridin-4-ylpiperazin-1-yl)-1-(quinoline-8-sulfonyl)-2,3-dihydro-1H-indol-2-one], less than 10 nM; with `CCOc1ccccc1C1(N2CCN(c3ccncc3)CC2C)C(=O)N(S(=O)(=O)c2cccc3cccnc23)c2ccc(C#N)cc21` (racemic) [Example 6, (±)-5-Cyano-3-(2-ethoxyphenyl)-3-(2-methyl-4-pyridin-4-ylpiperazin-1-yl)-1-(quinoline-8-sulfonyl)-2,3-dihydro-1H-indol-2-one], less than 10 nM.
As for `CCOc1cc(F)ccc1C1(N2CCCN(c3ccncc3)CC2)C(=O)N(S(=O)(=O)c2ccc(OC)cn2)c2ccc(C#N)cc21` (racemic) [Example 147, (±)-5-Cyano-3-(2-ethoxy-4-fluoro-phenyl)-1-(5-methoxy-pyridine-2-sulfonyl)-3-(4-pyridin-4-yl-[1,4]diazepan-1-yl)-2,3-dihydro-1H-indol-2-one], the figure is 10 to 50 nM.
`CCOc1nc(Cl)ccc1C1(N2CCN(c3ccncc3)CC2)C(=O)N(S(=O)(=O)c2ccc(OC)cn2)c2ccc(C#N)cc21` (racemic) [Example 36, (±)-5-Cyano-3-(6-chloro-2-ethoxypyridin-3-yl)-1-(5-methoxypyridine-2-sulfonyl)-3-(4-pyridin-4-ylpiperazin-1-yl)-2,3-dihydro-1H-indol-2-one] had a Ki of less than 10 nM.

For orientation: Ki means a dissociation constant, usually derived from enzyme kinetics or from competition with a known ligand. Read a high Ki as weaker binding.
